Results published in PubChem BioAssay AID248 (DTP/NCI, 2004).
“And” between values parts separate entries of the source, which are not always exact repeats. Equal values may be shown once. Inconclusive results and toxic doses are left out.

Tested on: L1210 leukemia ip in BDF1 mice, survival T/C
Assay: NCI In Vivo Anticancer Drug Screen. Data for tumor model L1210 Leukemia (intraperitoneal) in B6D2F1 (BDF1) mice
Settings: endpoint: mean survival time, higher = longer survival
Summary of the method: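 In this screen, tumor-bearing mice given compound are compared to those given vehicle, and their survival values are reported as a treated-to-control quotient.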

[1] = dose: 100.0 mg/kg/injection, schedule: Q04DX003 (ip), vehicle: Klucel (hydroxypropylcellulose) (HPC)
[2] = dose: 200.0 mg/kg/injection, schedule: Q04DX003 (ip), vehicle: Klucel (hydroxypropylcellulose) (HPC)
[3] = dose: 400.0 mg/kg/injection, schedule: Q04DX003 (ip), vehicle: Klucel (hydroxypropylcellulose) (HPC)
[4] = dose: 100.0 mg/kg/injection, schedule: Q04DX003 (ip), vehicle: saline with Tween-80
[5] = dose: 200.0 mg/kg/injection, schedule: Q04DX003 (ip), vehicle: saline with Tween-80
[6] = dose: 400.0 mg/kg/injection, schedule: Q04DX003 (ip), vehicle: saline with Tween-80
[7] = dose: 100.0 mg/kg/injection, schedule: Q01DX009 (ip), vehicle: Klucel (hydroxypropylcellulose) (HPC)
[8] = dose: 200.0 mg/kg/injection, schedule: Q01DX009 (ip), vehicle: Klucel (hydroxypropylcellulose) (HPC)
[9] = dose: 100.0 mg/kg/injection, schedule: Q01DX001 (ip), vehicle: other
[10] = dose: 200.0 mg/kg/injection, schedule: Q01DX001 (ip), vehicle: other
[11] = dose: 100.0 mg/kg/injection, schedule: Q04DX002 (ip), vehicle: Klucel (hydroxypropylcellulose) (HPC)
[12] = dose: 200.0 mg/kg/injection, schedule: Q04DX002 (ip), vehicle: Klucel (hydroxypropylcellulose) (HPC)
[13] = dose: 400.0 mg/kg/injection, schedule: Q04DX002 (ip), vehicle: Klucel (hydroxypropylcellulose) (HPC)
[14] = dose: 100.0 mg/kg/injection, schedule: Q01DX009 (ip), vehicle: saline with Tween-80
[15] = dose: 25.0 mg/kg/injection, schedule: Q01DX009 (ip), vehicle: saline

C1CSCSC1 was tested, and the T/C (dose: 12.5 mg/kg/injection, schedule: Q01DX009 (ip), vehicle: Klucel (hydroxypropylcellulose) (HPC)) was 100 % of control, the T/C (dose: 12.5 mg/kg/injection, schedule: Q04DX003 (ip), vehicle: Klucel (hydroxypropylcellulose) (HPC)) was 101 % of control and the T/C (dose: 25.0 mg/kg/injection, schedule: Q01DX009 (ip), vehicle: Klucel (hydroxypropylcellulose) (HPC)) was 95 % of control. The T/C (dose: 25.0 mg/kg/injection, schedule: Q04DX003 (ip), vehicle: Klucel (hydroxypropylcellulose) (HPC)) was 97 % of control and the T/C (dose: 50.0 mg/kg/injection, schedule: Q04DX003 (ip), vehicle: Klucel (hydroxypropylcellulose) (HPC)) was 100 % of control.
CC1CN=C(c2ccc(NC(=O)c3cccc(C(=O)Nc4ccc(C5=NCC(C)N5)cc4)c3)cc2)N1 (configuration not stated) was tested, and the T/C (dose: 4.5 mg/kg/injection, schedule: Q01DX Z (ip), vehicle: carboxymethylcellulose (CMC)) was 98 % of control, the T/C (dose: 6.8 mg/kg/injection, schedule: Q01DX Z (ip), vehicle: carboxymethylcellulose (CMC)) was 95 % of control and the T/C (dose: 10.2 mg/kg/injection, schedule: Q01DX Z (ip), vehicle: carboxymethylcellulose (CMC)) was 124 % of control. For the same compound, the T/C (dose: 16.4 mg/kg/injection, schedule: Q01DX Z (ip), vehicle: carboxymethylcellulose (CMC)) was 101 % of control, the T/C (dose: 37.0 mg/kg/injection, schedule: Q01DX Z (ip), vehicle: carboxymethylcellulose (CMC)) was 155 % of control and the T/C (dose: 40.0 mg/kg/injection, schedule: Q01DX Z (ip), vehicle: carboxymethylcellulose (CMC)) was 151 % of control. For the same compound, the T/C (dose: 50.0 mg/kg/injection, schedule: Q## X010 (oral), vehicle: saline) was 97 % of control, the T/C (dose: 55.5 mg/kg/injection, schedule: Q01DX Z (ip), vehicle: carboxymethylcellulose (CMC)) was 113 % of control and 87 % of control and the T/C (dose: 100.0 mg/kg/injection, schedule: Q## X010 (oral), vehicle: saline) was 103 % of control. The T/C (dose: 200.0 mg/kg/injection, schedule: Q## X010 (oral), vehicle: saline) was 96 % of control.
For CCCNC(=S)NC, the T/C [1] was 90 % of control, the T/C [2] was 95 % of control and the T/C [3] was 109 % of control.
COc1cc(Nc2nc(N)ncc2[N+](=O)[O-])cc(OC)c1OC was tested, and the T/C [4] was 92 % of control, the T/C [5] was 87 % of control and the T/C [6] was 88 % of control.
CCCCOC(=O)C1CCCCC1C(=O)OCCCC (configuration not stated) was tested, and the T/C (dose: 50.0 mg/kg/injection, schedule: Q01DX009 (ip), vehicle: Klucel (hydroxypropylcellulose) (HPC)) was 102 % of control, the T/C [7] was 102 % of control and the T/C [8] was 90 % of control.
For COC(=O)C(Cc1c[nH]c2ccccc12)N(C)C (configuration not stated), the T/C [9] was 101 % of control, the T/C [10] was 103 % of control and the T/C (dose: 400.0 mg/kg/injection, schedule: Q01DX001 (ip), vehicle: other) was 98 % of control.
For CC(C)=NC(=O)NO.[Cl][Ni][Cl], the T/C (dose: 15.0 mg/kg/injection, schedule: Q01DX001 (ip), vehicle: saline) was 102 % of control, the T/C (dose: 30.0 mg/kg/injection, schedule: Q01DX001 (ip), vehicle: saline) was 110 % of control and the T/C (dose: 60.0 mg/kg/injection, schedule: Q01DX001 (ip), vehicle: saline) was 111 % of control. The T/C (dose: 75.0 mg/kg/injection, schedule: Q01DX001 (ip), vehicle: saline) was 116 % of control.
In the case of CCOC(=O)c1c(C)[nH]c(-c2ccccc2)c1C, the T/C [7] is reported as 109 % of control, the T/C [1] is reported as 102 % of control and the T/C [8] is reported as 97 % of control. For the same compound, the T/C [2] was 100 % of control, the T/C (dose: 400.0 mg/kg/injection, schedule: Q01DX009 (ip), vehicle: Klucel (hydroxypropylcellulose) (HPC)) was 95 % of control and the T/C [3] was 94 % of control.
For Cc1cc(C)c(N(CC(=O)O)S(=O)(=O)c2ccccc2)c(C)c1Br, the T/C (dose: 75.0 mg/kg/injection, schedule: Q04DX003 (ip), vehicle: Klucel (hydroxypropylcellulose) (HPC)) was 92 % of control, the T/C (dose: 150.0 mg/kg/injection, schedule: Q04DX003 (ip), vehicle: Klucel (hydroxypropylcellulose) (HPC)) was 90 % of control and the T/C (dose: 300.0 mg/kg/injection, schedule: Q04DX003 (ip), vehicle: Klucel (hydroxypropylcellulose) (HPC)) was 90 % of control.
With CC1CCN(C(=O)Nc2ccccc2)CC1 the T/C [11] was 98 % of control, the T/C [12] was 117 % of control and the T/C [13] was 103 % of control.
For CSC1OC(C(NC(=O)N(C)N=O)C(C)O)C(O)C(O)C1O (configuration not stated), the T/C (dose: 100.0 mg/kg/injection, schedule: Q04DX003 (ip), vehicle: saline) was 105 % of control and the T/C (dose: 200.0 mg/kg/injection, schedule: Q04DX003 (ip), vehicle: saline) was 118 % of control.
For CC(=O)NC1CCC(C(C)(C)C)CC1 (configuration not stated), the T/C [14] was 102 % of control, the T/C [11] was 93 % of control and the T/C (dose: 200.0 mg/kg/injection, schedule: Q01DX009 (ip), vehicle: saline with Tween-80) was 108 % of control. For the same compound, the T/C [12] was 90 % of control and the T/C [13] was 103 % of control.
With COC1OC2CSC(=S)OC2C(OC)C1OC (configuration not stated) the T/C (dose: 25.0 mg/kg/injection, schedule: Q04DX002 (ip), vehicle: saline) was 100 % of control, the T/C (dose: 50.0 mg/kg/injection, schedule: Q04DX002 (ip), vehicle: saline) was 92 % of control and the T/C (dose: 100.0 mg/kg/injection, schedule: Q04DX002 (ip), vehicle: saline) was 103 % of control. The T/C (dose: 200.0 mg/kg/injection, schedule: Q04DX002 (ip), vehicle: saline) was 102 % of control and the T/C (dose: 400.0 mg/kg/injection, schedule: Q04DX002 (ip), vehicle: saline) was 102 % of control.
In the case of CCN(CC)CCNc1ccc([N+](=O)[O-])cc1[N+](=O)[O-], the T/C (dose: 50.0 mg/kg/injection, schedule: Q01DX009 (ip), vehicle: saline with Tween-80) is reported as 88 % of control, the T/C (dose: 100.0 mg/kg/injection, schedule: Q01DX001 (ip), vehicle: Klucel (hydroxypropylcellulose) (HPC)) is reported as 103 % of control and the T/C [14] is reported as 102 % of control. The T/C (dose: 200.0 mg/kg/injection, schedule: Q01DX001 (ip), vehicle: Klucel (hydroxypropylcellulose) (HPC)) was 103 % of control.
OCCOc1ccc(Cl)cc1Cl was tested, and the T/C (dose: 50.0 mg/kg/injection, schedule: Q01DX001 (ip), vehicle: other) was 101 % of control, the T/C (dose: 75.0 mg/kg/injection, schedule: Q01DX009 (ip), vehicle: saline with Tween-80) was 101 % of control and the T/C [9] was 103 % of control. The T/C (dose: 150.0 mg/kg/injection, schedule: Q01DX009 (ip), vehicle: saline with Tween-80) was 98 % of control, the T/C [10] was 103 % of control and the T/C (dose: 300.0 mg/kg/injection, schedule: Q01DX009 (ip), vehicle: saline with Tween-80) was 109 % of control.
For Cc1ccc(Br)cc1C(c1cc(Br)ccc1C)C(O)C(O)C(O)C(O)CO (configuration not stated), the T/C (dose: 50.0 mg/kg/injection, schedule: Q01DX001 (ip), vehicle: saline) was 106 % of control, the T/C (dose: 100.0 mg/kg/injection, schedule: Q01DX001 (ip), vehicle: saline) was 106 % of control and the T/C (dose: 200.0 mg/kg/injection, schedule: Q01DX001 (ip), vehicle: saline) was 110 % of control. The T/C (dose: 400.0 mg/kg/injection, schedule: Q01DX001 (ip), vehicle: saline) was 98 % of control.
With CC1CC(C)(C)N=C(CCC2CCCCCC2=O)O1 (configuration not stated) the T/C [15] was 98 % of control, the T/C (dose: 50.0 mg/kg/injection, schedule: Q01DX009 (ip), vehicle: saline) was 102 % of control and the T/C (dose: 50.0 mg/kg/injection, schedule: Q04DX003 (ip), vehicle: saline with Tween-80) was 96 % of control. For the same compound, the T/C (dose: 100.0 mg/kg/injection, schedule: Q01DX009 (ip), vehicle: saline) was 100 % of control, the T/C [4] was 93 % of control and the T/C (dose: 200.0 mg/kg/injection, schedule: Q01DX009 (ip), vehicle: saline) was 101 % of control. For the same compound, the T/C [5] was 96 % of control.
O=C(C1=Cc2ccccc2OC1)N1CCN(C(=O)C2=Cc3ccccc3OC2)CC1 was tested, and the T/C [4] was 100 % of control, the T/C [5] was 97 % of control and the T/C [6] was 95 % of control.
For CN1CCC(CN2c3ccccc3Sc3ccccc32)C1 (configuration not stated), the T/C (dose: 3.12 mg/kg/injection, schedule: Q01DX009 (ip), vehicle: saline) was 95 % of control, the T/C (dose: 6.25 mg/kg/injection, schedule: Q01DX009 (ip), vehicle: saline) was 107 % of control and the T/C (dose: 12.5 mg/kg/injection, schedule: Q01DX009 (ip), vehicle: saline) was 101 % of control. The T/C [15] was 101 % of control.
For CC1CCC2(CC1)OCC(CCl)O2 (configuration not stated), the T/C (dose: 222.0 mg/kg/injection, schedule: Q01DX Z (ip), vehicle: saline) was 107 % of control, the T/C (dose: 333.0 mg/kg/injection, schedule: Q01DX Z (ip), vehicle: saline) was 110 % of control and the T/C (dose: 500.0 mg/kg/injection, schedule: Q01DX Z (ip), vehicle: saline) was 113 % of control.
C=CCc1ccc(OCCOCCN(C)C2CCCCC2)c(OC)c1 was tested, and the T/C [1] was 90 % of control.
